The values that follow come from patent US20150080438A1, “6,7-Dihydro-5H-benzo[7]annulene derivatives, processes for their preparation, pharmaceutical products comprising them and their use for preparing medicaments” (Bayer Intellectual Property GmbH, priority 2011, published 2015).

Structures are written as SMILES.

Series [1] has as its system uterus growth induced by 17β-estradiol. In words: Anti-uterus growth test in the adult rat. It is filed as in vivo. The conditions noted are these: sc; ovariectomized adult rat, 0.3 mg/kg s.c. d1-d3 with 1.5 μg/kg/day 17β-estradiol; percentage inhibition of uterus growth; read-out: Anti-oestrogenic activity in vivo in % at a dose of 0.3 mg/kg (rat). From the text:
The uterus of oestrogen-substituted rats can be used as a test model for detecting a direct action of substances with anti-oestrogenic properties. The parameter of oestrogenic action is estradiol-induced uterus growth in rats, which is inhibited by simultaneous administration of a substance with anti-oestrogenic action. The experimental animals (n=5-6 animals/group) were ovariectomized before the start of the test, to rule out the influence of endogenous oestrogens. After a phase of 6 to 10 days, the test substances are administered s.c. on 3 consecutive days (d1-d3) in combination with a substitution dose of 1.5 μg/kg/day of 17β-estradiol. 17β-estradiol alone serves as positive control, and the excipients serve as negative control. On day 4 (d4) the animals are killed, and the uteri and vaginae are removed and weighed. The organ weights are converted to mg/100 g body weight, then the mean value and the standard deviation are calculated for each dosage. The inhibition of uterus or vaginal growth induced by 17β-estradiol is shown as percentage inhibition. The selected claimed substances were investigated in adult female rats as described for their anti-oestrogenic, inhibitory action on the weight of the uterus. At the dosage used, the substances show a marked anti-oestrogenic action in vivo (Table 3 and Table 4).

Series [2] deals with T1, oestrogen receptor (ER) (Homo sapiens, UniProt P03372).
T1 construct: These MVLN cells express, along with the functional oestrogen receptor (ER), a reporter construct; endogenous in cells; host or cells: MVLN cells (MCF7 derivative with ER-responsive luciferase reporter)
T1 sequence (P03372 1-595): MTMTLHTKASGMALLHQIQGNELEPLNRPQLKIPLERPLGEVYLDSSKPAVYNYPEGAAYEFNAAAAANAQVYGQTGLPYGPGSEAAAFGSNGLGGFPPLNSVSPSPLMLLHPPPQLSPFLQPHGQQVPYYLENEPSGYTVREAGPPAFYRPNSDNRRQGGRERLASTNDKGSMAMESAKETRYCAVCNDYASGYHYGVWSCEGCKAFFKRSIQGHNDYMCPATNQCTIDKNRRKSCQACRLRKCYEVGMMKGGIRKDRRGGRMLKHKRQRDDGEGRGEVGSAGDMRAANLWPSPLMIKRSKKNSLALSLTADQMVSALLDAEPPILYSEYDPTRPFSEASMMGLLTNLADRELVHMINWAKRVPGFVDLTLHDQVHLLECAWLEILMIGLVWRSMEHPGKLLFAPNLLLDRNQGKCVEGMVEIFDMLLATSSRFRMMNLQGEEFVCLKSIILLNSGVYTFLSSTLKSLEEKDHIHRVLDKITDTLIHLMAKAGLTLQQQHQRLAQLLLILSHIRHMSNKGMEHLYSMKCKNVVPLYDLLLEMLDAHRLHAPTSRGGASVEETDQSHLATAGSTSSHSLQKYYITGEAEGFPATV
As to the kind of experiment: Anti-oestrogenic action in MVLN cells (inhibition of estradiol-induced luciferase, transactivation antagonism). Type of series: cell-based. The conditions noted are these: inhibition of estradiol-induced luciferase activity, read-out: Anti-oestrogenic action in vitro: MVLN transactivation antagonism IC50. Summed up: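 MCF7-derived MVLN cells carrying an ER-driven luciferase reporter; test compounds applied with estradiol, and anti-oestrogenic action scored as inhibition of the estradiol-induced luciferase signal.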

In series [3] the test system is ovarian estradiol synthesis. In words: Stimulation of ovarian oestrogen synthesis (HPG axis) in hormonally intact adult rats. Type of series: in vivo, rat. The conditions noted are these: 3 mg/kg daily for 10 days, quotient of peripheral estradiol values after and before treatment. From the text:
The clinical use both of pure anti-oestrogens and of various SERMs for the treatment of premenopausal women is limited by their property of stimulating the ovaries through activation of the hypothalamic-pituitary-gonadal axis (HPG axis), which leads to the increase in peripheral estradiol levels (Palomba, S., Orio, F., Jr., Morelli, M., Russo, T., Pellicano, M., Zupi, E., Lombardi, G., Nappi, C., Panici, P. L., and Zullo, F. (2002). Raloxifene administration in premenopausal women with uterine leiomyomas: a pilot study. J Clin Endocrinol Metab 87, 3603-3608). This stimulation of the HPG axis is associated with penetration of the blood-brain barrier and penetration of the brain. To investigate the ovary-stimulating properties of the claimed pharmacological compounds, hormonally intact adult rats were treated with the substances daily for a period of 10 days. The study end point is the quotient of peripheral estradiol values after and before treatment.
Selected claimed pharmacological substances were investigated as described for their stimulating action on the HPG axis or ovarian estradiol synthesis. The selected substances show markedly less stimulation of the ovaries than the control compound raloxifene at equal dosages (cf. Table 5).

For orientation: IC50 means the concentration needed to halve the response being measured.

With `CN(CCCCCC1=C(c2cccc(O)c2)CCCc2cc(O)ccc21)CCCCS(=O)(=O)CCCC(F)(F)C(F)(F)F` [Example 7, 8-(3-Hydroxyphenyl)-9-[5-(methyl{4-[(4,4,5,5,5-pentafluoropentyl)sulphonyl]butyl}amino)pentyl]-6,7-dihydro-5H-benzo[7]annulen-3-ol], the inhibition in vivo at 0.3 mg/kg in series [1] turned out to be 31%. Moreover, the IC50 in series [2] amounted to 5 nM. Moreover, the “Stimulation of ovarian oestrogen synthesis: factor at a dose of 3 mg/kg rat” value (“Stimulation” for short) in series [3] is reported as 1.8.

Take `CN(CCCCCC1=C(c2ccc(O)c(F)c2)CCCc2cc(O)ccc21)CCCS(=O)(=O)CCCC(F)(F)C(F)(F)F` [Example 38, 8-(3-Fluoro-4-hydroxyphenyl)-9-[5-(methyl{3-[(4,4,5,5,5-pentafluoropentyl)sulphonyl]propyl}amino)pentyl]-6,7-dihydro-5H-benzo[7]annulen-3-ol]: the inhibition in vivo at 0.3 mg/kg in series [1] came to 57%. For the same compound, the IC50 in series [2] is 2 nM. Moreover, the “Stimulation” value in series [3] stood at 1.7.

Regarding `CN(CCCCCCC1=C(c2ccc(F)c(O)c2)CCCc2cc(O)ccc21)CCCS(=O)(=O)CCCC(F)(F)C(F)(F)F` [Example 29, 8-(4-Fluoro-3-hydroxyphenyl)-9-[6-(methyl{3-[(4,4,5,5,5-pentafluoropentyl)sulphonyl]propyl}amino)hexyl]-6,7-dihydro-5H-benzo[7]annulen-3-ol], the inhibition in vivo at 0.3 mg/kg in series [1] is 61%. The IC50 in series [2] worked out at 3 nM. The “Stimulation” value in series [3] is reported as 1.1.
